From the supplement of paper PMC10307832

Experiments:
Experiment in all cases: relative viability (nuclei count vs DMSO), 5 days (fraction); higher = more cells survive
Omipalisib + AZD7762 = compound: COc1ncc(-c2ccc3nccc(-c4ccnnc4)c3c2)cc1NS(=O)(=O)c1ccc(F)cc1F [Omipalisib] + NC(=O)Nc1cc(-c2cccc(F)c2)sc1C(=O)N[C@H]1CCCNC1 [AZD7762] (partner 0.2 µM)
Procedure, shortened: (§1)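 Relative viability divides the nuclei count in treated wells by that in vehicle wells. Lung cancer cell lines were seeded in 1536-well plates, dosed by pin tool the next day, and fixed and stained after 5 days in one step with final 0.05% Triton X-100, 1% formaldehyde and 1 ug/ml Hoechst. Dosing was a single drug or a fixed anchor-drug dose plus five library-drug doses (not always all listed) in √10 steps, and values are medians of duplicate plates imaged at 4×.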

Omipalisib + Crizotinib = compound: COc1ncc(-c2ccc3nccc(-c4ccnnc4)c3c2)cc1NS(=O)(=O)c1ccc(F)cc1F [Omipalisib] + C[C@@H](Oc1cc(-c2cnn(C3CCNCC3)c2)cnc1N)c1c(Cl)ccc(F)c1Cl [Crizotinib] (partner 1 µM)
Procedure, shortened: as §1

Omipalisib + Pemetrexed = compound: COc1ncc(-c2ccc3nccc(-c4ccnnc4)c3c2)cc1NS(=O)(=O)c1ccc(F)cc1F [Omipalisib] + Nc1nc2[nH]cc(CCc3ccc(C(=O)N[C@@H](CCC(=O)O)C(=O)O)cc3)c2c(=O)[nH]1 [Pemetrexed] (partner 0.2 µM)
Procedure, shortened: as §1

Omipalisib + Vorinostat = compound: COc1ncc(-c2ccc3nccc(-c4ccnnc4)c3c2)cc1NS(=O)(=O)c1ccc(F)cc1F [Omipalisib] + O=C(CCCCCCC(=O)Nc1ccccc1)NO [Vorinostat] (partner 1 µM)
Procedure, shortened: as §1

Omipalisib + Luminespib = compound: COc1ncc(-c2ccc3nccc(-c4ccnnc4)c3c2)cc1NS(=O)(=O)c1ccc(F)cc1F [Omipalisib] + CCNC(=O)c1noc(-c2cc(C(C)C)c(O)cc2O)c1-c1ccc(CN2CCOCC2)cc1 [Luminespib] (partner 0.01 µM)
Procedure, shortened: as §1

Omipalisib + Navitoclax = compound: COc1ncc(-c2ccc3nccc(-c4ccnnc4)c3c2)cc1NS(=O)(=O)c1ccc(F)cc1F [Omipalisib] + CC1(C)CCC(c2ccc(Cl)cc2)=C(CN2CCN(c3ccc(C(=O)NS(=O)(=O)c4ccc(N[C@H](CCN5CCOCC5)CSc5ccccc5)c(S(=O)(=O)C(F)(F)F)c4)cc3)CC2)C1 [Navitoclax] (partner 0.5 µM)
Procedure, shortened: as §1

Cell Line	relative viability (Omipalisib + AZD7762; first compound 0.0003 µM)	relative viability (Omipalisib + AZD7762; first compound 0.003 µM)	relative viability (Omipalisib + AZD7762; first compound 0.03 µM)	relative viability (Omipalisib + Crizotinib; first compound 0.0003 µM)	relative viability (Omipalisib + Crizotinib; first compound 0.003 µM)	relative viability (Omipalisib + Crizotinib; first compound 0.03 µM)	relative viability (Omipalisib + Pemetrexed; first compound 0.0003 µM)	relative viability (Omipalisib + Pemetrexed; first compound 0.003 µM)	relative viability (Omipalisib + Pemetrexed; first compound 0.03 µM)	relative viability (Omipalisib + Vorinostat; first compound 0.0003 µM)	relative viability (Omipalisib + Vorinostat; first compound 0.003 µM)	relative viability (Omipalisib + Vorinostat; first compound 0.03 µM)	relative viability (Omipalisib + Luminespib; first compound 0.0003 µM)	relative viability (Omipalisib + Luminespib; first compound 0.003 µM)	relative viability (Omipalisib + Luminespib; first compound 0.03 µM)	relative viability (Omipalisib + Navitoclax; first compound 0.0003 µM)	relative viability (Omipalisib + Navitoclax; first compound 0.003 µM)	relative viability (Omipalisib + Navitoclax; first compound 0.03 µM)
NCI-H23	0.278	0.227	0.223	0.425	0.263	0.283	0.692	0.44	0.374	0.541	0.297	0.234	0.225	0.219	0.218	0.748	0.421	0.35
EPLC-272H	0.149	0.213	0.167	1.08	0.794	0.325	0.34	0.39	0.235	0.586	0.295	0.129	0.191	0.176	0.156	1.12	0.945	0.327
NCI-H1975	0.711	0.446	0.305	0.925	0.736	0.307	0.35	0.3	0.22	0.702	0.458	0.276	0.142	0.194	0.2	1.03	0.635	0.24
NCI-H2170	0.684	0.376	0.375	1.04	0.786	0.418	0.26	0.262	0.253	0.716	0.51	0.418	0.543	0.178	0.189	0.414	0.28	0.222
PC-3 [JPC-3]	0.73	0.685	0.424	0.922	1	0.889	1.03	1.12	0.89	0.889	0.821	0.613	0.677	0.587	0.485	0.781	0.76	0.646
A-427	0.715	0.628	0.579	0.818	0.736	0.639	0.983	0.922	0.931	0.885	0.877	0.867	0.857	0.678	0.863	0.957	0.732	0.872
LU99A	0.291	0.265	0.165	0.55	0.449	0.225	0.186	0.192	0.191	0.441	0.353	0.228	0.201	0.206	0.24	0.5	0.512	0.293
H3255	1	0.869	0.566	0.859	0.811	0.421	0.576	0.577	0.469	0.811	0.623	0.269	0.942	0.786	0.613	0.495	0.362	0.201
NCI-H1437	1.17	1	0.395	0.864	0.894	0.702	0.276	0.298	0.27	0.948	0.75	0.448	1.15	1.02	0.926	1.03	0.974	0.517
LC-2-ad	0.855	0.762	0.464	0.478	0.395	0.253	0.279	0.26	0.275	0.67	0.575	0.303	0.825	1.05	0.461	0.531	0.309	0.105
NCI-H460	0.645	0.621	0.277	0.772	0.589	0.132	0.0592	0.0512	0.0757	0.653	0.617	0.0977	0.0375	0.0227	0.0165	1.06	0.61	0.143
201T	0.592	0.516	0.459	0.988	1.05	0.731	0.342	0.309	0.266	1.01	0.855	0.453	0.95	1.05	0.463	1.21	1.2	0.838
NCI-H596	0.966	0.546	0.479	0.93	0.561	0.361	0.497	0.586	0.407	0.581	0.364	0.447	0.98	0.657	0.285	0.849	0.519	0.174
RERF-LC-KJ	0.867	0.554	0.514	0.736	0.814	0.679	0.47	0.439	0.414	0.627	0.52	0.424	1.15	1.13	0.688	0.79	0.7	0.627
NCI-H1915	0.777	0.736	0.624	0.841	0.892	0.863	0.545	0.534	0.509	0.528	0.483	0.432	0.677	0.766	0.579	0.813	0.768	0.789
NCI-H3122	1.01	0.613	0.432	0.258	0.231	0.159	0.214	0.192	0.202	0.752	0.713	0.399	0.074	0.0541	0.089	1.02	0.991	0.402
